Experimental data reported in patent publication US20100048544A1, “PYRROLO (3, 2, 1-IJ) QUINOLINE-4-ONE-DERIVATIVES FOR TREATING TUBERCULOSIS” (priority 2007, published 2010).

Tested on: Mycobacterium tuberculosis H37Rv
Test: Mycobacterium tuberculosis H37Rv inhibition assay (MIC, microtiter plate, alamar blue)
Assay type: cell-based
Details: ATCC 25618 / H37Rv, H37Rv strain (ATCC25618), Middlebrook 7H9, 37° C. six days, alamar blue fluorescence after 48 hours, read-out: MIC value

Question: For `O=c1ccc2ccc(F)c3c2n1CC3CN1CCC(NCc2ccc3c(c2)C(O)CCC3)CC1` (centres unmarked) [Example 75, 9-fluoro-1-[(4-{[(8-hydroxy-5,6,7,8-tetrahydro-2-naphthalenyl)methyl]amino}-1-piperidinyl)methyl]-1,2-dihydro-4H-pyrrolo[3,2,1-ij]quinolin-4-one], which MIC is on record?
Answer: ≤ 4 µg/mL

Question: For `O=c1ccc2ccc(F)c3c2n1CC3CN1CCC(NCc2cc3c(cn2)OCCO3)CC1` (centres unmarked) [Example 2, 1-({4-[(2,3-Dihydro[1,4]dioxino[2,3-c]pyridin-7-ylmethyl)amino]-1-piperidinyl}methyl)-9-fluoro-1,2-dihydro-4H-pyrrolo[3,2,1-ij]quinolin-4-one], which MIC is on record?
Answer: ≤ 4 µg/mL

Question: Which MIC does the source give for `O=C1COc2cc(Cl)c(CNC[C@H]3CCN(CC4Cn5c(=O)ccc6ccc(F)c4c65)C3)nc2N1` (stereo partly drawn) [Example 33, 1-{[(3R)-3-({[(7-Chloro-3-oxo-3,4-dihydro-2H-pyrido [3,2-b][1,4]oxazin-6-yl)methyl]amino}methyl)-1-pyrrolidinyl]methyl}-9-fluoro-1,2-dihydro-4H-pyrrolo[3,2,1-ij]quinolin-4-one] here?
Answer: ≤ 4 µg/mL

Question: Which MIC does the source give for `O=c1ccc2ccc(F)c3c2n1CC3(O)CN1CCC(NCc2cc3c(nn2)OCCS3)CC1` (centres unmarked) [Example 29, 1-({4-[(6,7-Dihydro[1,4]oxathiino[2,3-c]pyridazin-3-ylmethyl)amino]-1-piperidinyl}methyl)-9-fluoro-1-hydroxy-1,2-dihydro-4H-pyrrolo[3,2,1-ij]quinolin-4-one] here?
Answer: ≤ 4 µg/mL

Question: How did the MIC turn out when `O=C1COc2ccc(CNC[C@H]3CCN(CC4Cn5c(=O)ccc6ccc(F)c4c65)C3)nc2N1` (stereo partly drawn) [Example 35, 9-Fluoro-1-{[(3R)-3-({[(3-oxo-3,4-dihydro-2H-pyrido[3,2-b][1,4]oxazin-6-yl)methyl]amino}methyl)-1-pyrrolidinyl]methyl}-1,2-dihydro-4H-pyrrolo[3,2,1-ij]quinolin-4-one] was run?
Answer: ≤ 4 µg/mL

Same assay, conditions: ATCC 25618 / H37Rv, read-out: MIC value, H37Rv strain (ATCC25618), Middlebrook 7H9, 37° C. six days, alamar blue fluorescence after 48 hours

Question: `O=c1ccc2ccc(F)c3c2n1C[C@H]3CN1CCC(NCc2ccc3c(c2F)OCCO3)CC1` [Example 80, (1R)-9-fluoro-1-[(4-{[(5-fluoro-2,3-dihydro-1,4-benzodioxin-6-yl)methyl]amino}-1-piperidinyl)methyl]-1,2-dihydro-4H-pyrrolo[3,2,1-ij]quinolin-4-one] was tested. Which MIC did it give?
Answer: ≤ 4 µg/mL

Question: Which MIC does the source give for `O=c1ccc2ccc(F)c3c2n1CC3CN1CC[C@H](NCc2cc3c(cn2)OCC3)[C@H](O)C1` (stereo partly drawn) [Example 8, 1-({(3R,4S)-4-[(2,3-Dihydrofuro[2,3-c]pyridin-5-ylmethyl)amino]-3-hydroxy-1-piperidinyl}methyl)-9-fluoro-1,2-dihydro-4H-pyrrolo [3,2,1-ij]quinolin-4-one] here?
Answer: ≤ 4 µg/mL

Question: With `O=c1ccc2ccc(F)c3c2n1CC3CN1CCC(NCc2cnc3c(c2)OCCO3)CC1` (centres unmarked) [Example 22, 1-({4-[(2,3-dihydro[1,4]dioxino[2,3-b]pyridin-7-ylmethyl)amino]-1-piperidinyl}methyl)-9-fluoro-1,2-dihydro-4H-pyrrolo[3,2,1-ij]quinolin-4-one] as the compound, how does the MIC read?
Answer: ≤ 4 µg/mL
